From ChEMBL document CHEMBL1201862, “PubChem BioAssay data set” (2004)
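Results reflect a 48-hour exposure of cells in 96-well plates to compound at five concentrations. GI50 marks 50% less growth.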 Calls of active or inactive are those of the source. Cut-off read from the data, not from the text of the source: active = GI50 up to about 1.1 µM and inactive = higher.

Assays:
Experiment in all cases: DTP human tumour cell line panel, 48 h
ACHN = test system: ACHN
LOX IMVI = test system: LOX IMVI
SK-MEL-5 = test system: SK-MEL-5
MCF7 = test system: MCF7
KM12 = test system: KM12
HCT-116 = test system: HCT-116
K562 = test system: K562
RXF 393 = test system: RXF 393
OVCAR-3 = test system: OVCAR-3
BT-549 = test system: BT-549
UACC-62 = test system: UACC-62
OVCAR-8 = test system: OVCAR-8
DU-145 = test system: DU-145
RPMI-8226 = test system: RPMI-8226
786-0 = test system: 786-0
NCI-H23 = test system: NCI-H23
NCI-H460 = test system: NCI-H460
SN12C = test system: SN12C
NCI-H226 = test system: NCI-H226
CCRF-CEM = test system: CCRF-CEM

Measured: GI50

c1cc(CNCCN2CCNCC2)ccn1
inactive: ACHN > 100 µM | LOX IMVI > 100 µM | SK-MEL-5 > 100 µM | MCF7 > 100 µM | KM12 > 100 µM | HCT-116 > 100 µM | K562 > 100 µM | RXF 393 > 100 µM | OVCAR-3 > 100 µM | BT-549 > 100 µM | UACC-62 > 100 µM | OVCAR-8 > 100 µM | DU-145 > 100 µM | RPMI-8226 > 100 µM | 786-0 > 100 µM | NCI-H23 > 100 µM | NCI-H460 > 100 µM | SN12C > 100 µM | NCI-H226 > 100 µM

CCOC(=O)c1ccc(/N=C2/C(=S)N(c3ccc(C(=O)OCC)cc3)C(=N)N2/N=C/c2ccccc2)cc1
inactive: SK-MEL-5 3.37 µM | MCF7 6.68 µM | KM12 14.7 µM | HCT-116 6.11 µM | K562 3.7 µM | RXF 393 5.13 µM | OVCAR-3 13.1 µM | BT-549 17.5 µM | UACC-62 5.7 µM | OVCAR-8 28.2 µM | DU-145 37.3 µM | RPMI-8226 4.13 µM | 786-0 11.3 µM | NCI-H23 > 10 µM | NCI-H460 15.5 µM | SN12C 17.9 µM | NCI-H226 15 µM

Cc1ccc(C)n2c1nc1ccc3ccccc3c12
inactive: ACHN > 100 µM | CCRF-CEM > 100 µM | SK-MEL-5 50.2 µM | MCF7 26.8 µM | KM12 > 100 µM | K562 > 100 µM | RXF 393 > 100 µM | OVCAR-3 > 100 µM | BT-549 > 100 µM | UACC-62 53.2 µM | OVCAR-8 > 100 µM | DU-145 > 100 µM | RPMI-8226 > 100 µM | 786-0 > 100 µM | NCI-H23 > 100 µM | NCI-H460 > 100 µM | SN12C > 100 µM | NCI-H226 > 100 µM

ClC1(Cl)C(c2ccccc2)C1c1ccccc1 (configuration not stated)
inactive: ACHN 25.6 µM | LOX IMVI 28.2 µM | MCF7 56 µM | KM12 21.4 µM | HCT-116 23.9 µM | K562 9.68 µM | RXF 393 14.4 µM | OVCAR-3 21.1 µM | BT-549 33.4 µM | UACC-62 29.5 µM | OVCAR-8 21.2 µM | DU-145 42.2 µM | RPMI-8226 24.4 µM | 786-0 28.5 µM | NCI-H23 24.6 µM | NCI-H460 13.2 µM | SN12C 39.4 µM | NCI-H226 14.6 µM

O=C1CN(c2ccc(Cl)cc2)C(=O)CN1CCN1CC(=O)N(c2ccc(Cl)cc2)CC1=O
inactive: ACHN > 100 µM | CCRF-CEM > 100 µM | SK-MEL-5 > 100 µM | MCF7 > 100 µM | KM12 > 100 µM | HCT-116 > 100 µM | RXF 393 > 100 µM | OVCAR-3 > 100 µM | BT-549 > 100 µM | UACC-62 > 100 µM | OVCAR-8 > 100 µM | DU-145 > 100 µM | RPMI-8226 > 100 µM | 786-0 > 100 µM | NCI-H23 > 100 µM | NCI-H460 > 100 µM | SN12C > 100 µM

CN1c2ccc(Cl)cc2C(=O)NC1c1ccc([N+](=O)[O-])s1 (configuration not stated)
inactive: ACHN 19.4 µM | LOX IMVI 14.5 µM | CCRF-CEM 39.5 µM | SK-MEL-5 16.1 µM | MCF7 19.6 µM | KM12 16.4 µM | HCT-116 15.2 µM | K562 13.3 µM | RXF 393 11.6 µM | OVCAR-3 15.5 µM | BT-549 14.1 µM | UACC-62 11.4 µM | OVCAR-8 15.8 µM | DU-145 19.3 µM | RPMI-8226 6.19 µM | 786-0 16.6 µM | NCI-H460 16.1 µM | SN12C 16.6 µM
